Measured values taken from ChEMBL document CHEMBL2010795, “Anti-inflammatory and anti-arthritic effects of new synthetic 3-(4-hydroxyphenyl)-4-(4-thiomethoxyphenyl)-1H-pyrrole-2,5-dione” (2012).
Active and inactive are the calls of the source. No cut-off for these calls is given here.

Key:
[1] = system: Rattus norvegicus; assay: Antiinflammatory activity in rat assessed as inhibition of carrageenan-induced hind paw edema at 50 mg/kg, po administered 1 hr before carrageenan challenge measured up to 5 hrs by plethysmometer; type: functional, organism-based; design: dose 50 mg/kg
[2] = system: Rattus norvegicus; assay: Antiarthritic activity in Freund's complete adjuvant-induced Sprague-Dawley rat arthritis model at 50 mg/kg, po administered daily on day 9 to day 19 post challenge; type: functional, organism-based; design: dose 50 mg/kg
[3] = system: Rattus norvegicus; assay: Antiarthritic activity in Freund's complete adjuvant-induced Sprague-Dawley rat arthritis model assessed as reduction in IL-6 mRNA expression at 50 mg/kg, po administered daily on day 9 to day 19 post challenge measured on day 20 by RT-PCR analysis; type: functional, organism-based; design: dose 50 mg/kg
[4] = system: RAW264.7; assay: Effect on COX-1 protein expression in LPS-stimulated mouse RAW264.7 cells; type: functional, cell-based
[5] = biological target: T1, Prostaglandin G/H synthase 2 (Homo sapiens) (UniProt P35354); assay: Inhibition of human recombinant COX2 assessed as PGF2alpha production preincubated for 10 mins before substrate addition by EIA
T1 sequence (whole entry): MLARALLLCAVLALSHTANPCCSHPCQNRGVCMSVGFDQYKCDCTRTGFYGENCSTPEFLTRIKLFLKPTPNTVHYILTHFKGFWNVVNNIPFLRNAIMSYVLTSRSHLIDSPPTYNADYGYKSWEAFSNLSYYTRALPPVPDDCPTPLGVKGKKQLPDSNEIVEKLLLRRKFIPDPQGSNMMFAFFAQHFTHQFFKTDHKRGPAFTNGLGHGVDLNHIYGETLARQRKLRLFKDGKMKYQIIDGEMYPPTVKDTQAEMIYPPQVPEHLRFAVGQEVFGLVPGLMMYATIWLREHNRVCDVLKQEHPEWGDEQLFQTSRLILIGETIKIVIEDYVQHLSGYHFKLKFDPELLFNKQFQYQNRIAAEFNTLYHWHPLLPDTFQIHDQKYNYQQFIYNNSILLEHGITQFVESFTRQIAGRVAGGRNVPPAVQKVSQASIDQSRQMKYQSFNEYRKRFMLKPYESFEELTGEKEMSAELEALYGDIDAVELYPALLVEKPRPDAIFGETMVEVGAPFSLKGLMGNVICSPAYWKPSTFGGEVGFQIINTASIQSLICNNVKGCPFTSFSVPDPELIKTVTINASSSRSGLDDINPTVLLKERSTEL

[6] = system: Rattus norvegicus; assay: Antiinflammatory activity in rat assessed as inhibition of carrageenan-induced myeloperoxidase activity in hind paw at 25 mg/kg, po administered 1 hr before carrageenan challenge measured up to 5 hrs by EIA; type: functional, organism-based; design: dose 25 mg/kg
[7] = system: Rattus norvegicus; assay: Antiarthritic activity in Freund's complete adjuvant-induced Sprague-Dawley rat arthritis model assessed as inhibition of erythema at 25 to 50 mg/kg, po administered daily on day 9 to day 19 post challenge; type: functional, organism-based
[8] = system: RAW264.7; assay: Inhibition of LPS-induced IL-1 beta production in mouse RAW264.7 cells at 10 to 40 uM treated 1 hr before LPS challenge measured after 24 hrs by EIA; type: functional, cell-based
[9] = system: RAW264.7; assay: Inhibition of LPS-induced IL-6 production in mouse RAW264.7 cells at 10 to 40 uM treated 1 hr before LPS challenge measured after 24 hrs by EIA; type: functional, cell-based
[10] = system: Rattus norvegicus; assay: Antiinflammatory activity in rat assessed as inhibition of carrageenan-induced PGE2 production in hind paw at 25 mg/kg, po administered 1 hr before carrageenan challenge measured up to 5 hrs by EIA; type: functional, organism-based; design: dose 25 mg/kg
[11] = system: Rattus norvegicus; assay: Antiinflammatory activity in rat assessed as inhibition of carrageenan-induced hind paw edema at 25 mg/kg, po administered 1 hr before carrageenan challenge measured up to 5 hrs by plethysmometer; type: functional, organism-based; design: dose 25 mg/kg
[12] = system: Rattus norvegicus; assay: Antiarthritic activity in Freund's complete adjuvant-induced Sprague-Dawley rat arthritis model assessed as inhibition of ankle swelling at 25 to 50 mg/kg, po administered daily on day 9 to day 19 post challenge; type: functional, organism-based
[13] = system: RAW264.7; assay: Effect on COX-2 mRNA expression in LPS-stimulated mouse RAW264.7 cells at 10 to 40 uM preincubated for 1 hr prior LPS challenge measured after 4 hrs by RT-PCR analysis; type: functional, cell-based
[14] = system: RAW264.7; assay: Inhibition of LPS-induced iNOS mRNA expression in mouse RAW264.7 cells assessed as reduction in NO production at 10 to 40 uM treated 1 hr before LPS challenge measured after 4 hrs by RT-PCR analysis; type: functional, cell-based
[15] = biological target: T2, Prostaglandin G/H synthase 1 (Ovis aries) (UniProt P05979); assay: Inhibition of ovine recombinant COX1 assessed as PGF2alpha production at 0.1 to 40 uM preincubated for 10 mins before substrate addition by EIA
T2 sequence (whole entry): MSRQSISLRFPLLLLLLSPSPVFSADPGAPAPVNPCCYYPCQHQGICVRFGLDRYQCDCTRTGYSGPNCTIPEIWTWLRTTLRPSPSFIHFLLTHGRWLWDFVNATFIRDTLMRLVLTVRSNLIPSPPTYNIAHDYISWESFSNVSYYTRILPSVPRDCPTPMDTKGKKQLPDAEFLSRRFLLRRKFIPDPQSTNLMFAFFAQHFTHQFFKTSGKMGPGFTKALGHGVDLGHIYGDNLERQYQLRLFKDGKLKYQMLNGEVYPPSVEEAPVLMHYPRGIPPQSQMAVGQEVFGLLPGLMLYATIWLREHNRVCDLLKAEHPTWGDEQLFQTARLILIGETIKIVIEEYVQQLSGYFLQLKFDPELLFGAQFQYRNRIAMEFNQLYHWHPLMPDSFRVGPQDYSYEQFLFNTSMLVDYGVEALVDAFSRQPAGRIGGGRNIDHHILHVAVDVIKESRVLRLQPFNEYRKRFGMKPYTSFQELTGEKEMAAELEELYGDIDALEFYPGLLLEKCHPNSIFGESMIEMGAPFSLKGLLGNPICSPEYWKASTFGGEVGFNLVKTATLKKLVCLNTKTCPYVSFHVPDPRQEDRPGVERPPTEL

[16] = system: Rattus norvegicus; assay: Antiarthritic activity in Freund's complete adjuvant-induced Sprague-Dawley rat arthritis model assessed as reduction in paw volume at 50 mg/kg, po administered daily on day 9 to day 19 post challenge; type: functional; design: scale not given: the % may be the effect or the level left
[17] = system: Rattus norvegicus; assay: Antiarthritic activity in Freund's complete adjuvant-induced Sprague-Dawley rat arthritis model assessed as inhibition of joint dysfunction at 25 to 50 mg/kg, po administered daily on day 9 to day 19 post challenge; type: functional, organism-based
[18] = system: Rattus norvegicus; assay: Antiarthritic activity in Freund's complete adjuvant-induced Sprague-Dawley rat arthritis model assessed as inhibition of edema at 25 to 50 mg/kg, po administered daily on day 9 to day 19 post challenge; type: functional, organism-based
[19] = system: Rattus norvegicus; assay: Antiarthritic activity in Freund's complete adjuvant-induced Sprague-Dawley rat arthritis model at 25 mg/kg, po administered daily on day 9 to day 19 post challenge; type: functional, organism-based; design: dose 25 mg/kg
[20] = system: RAW264.7; assay: Inhibition of LPS-induced IL-1 beta mRNA expression in mouse RAW264.7 cells at 10 to 40 uM treated 1 hr before LPS challenge measured after 24 hrs by RT-PCR analysis; type: functional, cell-based
[21] = system: RAW264.7; assay: Effect on COX-2 protein expression in LPS-stimulated mouse RAW264.7 cells at 10 to 40 uM preincubated for 1 hr prior LPS challenge measured after 24 hrs by Western blot analysis; type: functional, cell-based
[22] = system: RAW264.7; assay: Effect on COX-1 mRNA expression in LPS-stimulated mouse RAW264.7 cells; type: functional, cell-based
[23] = system: Rattus norvegicus; assay: Antiarthritic activity in Freund's complete adjuvant-induced Sprague-Dawley rat arthritis model assessed as reduction in IL-1beta mRNA expression at 50 mg/kg, po administered daily on day 9 to day 19 post challenge measured on day 20 by RT-PCR analysis; type: functional, organism-based; design: dose 50 mg/kg
[24] = system: RAW264.7; assay: Inhibition of iNOS protein expression in mouse RAW264.7 cells assessed as reduction in NO production by Western blot analysis; type: functional, cell-based
[25] = system: Rattus norvegicus; assay: Antiarthritic activity in Freund's complete adjuvant-induced Sprague-Dawley rat arthritis model assessed as reduction in plasma PGE2 levels at 50 mg/kg, po administered daily on day 9 to day 19 post challenge measured after 19 days by EIA; type: functional; design: scale not given: the % may be the effect or the level left
[26] = system: RAW264.7; assay: Inhibition of LPS-induced nitric oxide production in mouse RAW264.7 cells at 10 to 40 uM treated 1 hr before LPS challenge measured after 24 hrs by Griess method; type: functional, cell-based
[27] = system: RAW264.7; assay: Inhibition of LPS-induced IL-6 mRNA expression in mouse RAW264.7 cells at 10 to 40 uM treated 1 hr before LPS challenge measured after 24 hrs by RT-PCR analysis; type: functional, cell-based
[28] = system: RAW264.7; assay: Inhibition of LPS-induced PGE2 production in mouse RAW264.7 cells treated 1 hr before LPS challenge measured after 24 hrs by EIA; type: functional, cell-based

Question: What does the source list for `CC(C)Cc1ccc(C(C)C(=O)O)cc1` (stereo not given)?
Answer: inhibition [1]: Active; Activity [2]: Active

Question: Which results are given for `CSc1ccc(C2=C(c3ccc(O)cc3)C(=O)NC2=O)cc1`?
Answer: Activity [3]: Active; inhibition [4]: inactive; inhibition [5]: Dose-dependent effect; inhibition [6]: Active; inhibition [7]: Active; inhibition [1]: Active; inhibition [8]: Active; inhibition [9]: Active; inhibition [10]: Active; inhibition [11]: Active; inhibition [12]: Active; inhibition [13]: inactive; inhibition [14]: Active; inhibition [15]: inactive; Activity [16]: 53%; Activity [2]: Active; inhibition [17]: Active; inhibition [18]: Active; Activity [19]: Active; inhibition [20]: Active; inhibition [21]: inactive; inhibition [22]: inactive; Activity [23]: Active; inhibition [24]: Active; Activity [25]: 42%; inhibition [26]: Active; inhibition [27]: Active; inhibition [28]: Dose-dependent effect
